According to patent publication US20230265151A1, “GIP/GLP1 CO-AGONIST COMPOUNDS” (priority 2020, published 2023):
Like-named read-outs stand apart in the source and are kept apart here. *1 amine or outer side, *2 acyl side, *3 side chain or, on linkers, in order; H or OH if unused. Where a SMILES comes first, the peptide text is derived from it. Side-chain parts run from the residue outwards. [ ]: non-standard residue; d: D form. The star is where a group is joined. αMePhe(2-F) = C[C@](N)(Cc1ccccc1F)C(=O)O; γGlu = O=C(O)[C@H](CCC(=O)[*:2])N[*:1]; C14 diacid = O=C(O)CCCCCCCCCCCCC(=O)*; αMeY = C[C@](N)(Cc1ccc(O)cc1)C(=O)O; 4Pal = N[C@@H](Cc1ccncc1)C(=O)O; αMeL = CC(C)C[C@](C)(N)C(=O)O; Orn = NCCC[C@H](N)C(=O)O; AEEA = NCCOCCOCC(=O)O; Aib = CC(C)(N)C(=O)O

What was measured:
Format in all cases: cell-based
hGLP-1R = hGLP-1R (Homo sapiens, UniProt P43220); experiment: Functional cAMP formation (HTRF) in HEK-293 clonal cells expressing hGLP-1R, 0.1% bovine casein, without or with 1.0% human serum albumin; design: expressed in transfected cells; settings: for EC50: geometric mean
Sequence of hGLP-1R (P43220 24-463): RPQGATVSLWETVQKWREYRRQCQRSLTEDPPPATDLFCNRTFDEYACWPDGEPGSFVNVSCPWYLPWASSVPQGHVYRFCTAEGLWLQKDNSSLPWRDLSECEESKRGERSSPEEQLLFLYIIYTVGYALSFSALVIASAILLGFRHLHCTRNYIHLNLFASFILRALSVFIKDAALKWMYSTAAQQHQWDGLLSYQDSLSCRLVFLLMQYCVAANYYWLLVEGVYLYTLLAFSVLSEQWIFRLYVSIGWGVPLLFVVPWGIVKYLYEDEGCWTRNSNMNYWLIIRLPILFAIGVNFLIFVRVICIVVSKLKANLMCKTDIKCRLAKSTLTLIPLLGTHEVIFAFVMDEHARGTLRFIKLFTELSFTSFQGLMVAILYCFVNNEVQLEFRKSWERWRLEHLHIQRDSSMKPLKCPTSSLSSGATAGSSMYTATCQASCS
Outline: (§1)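 Readings of the HTRF 665/620 nm ratio, which falls as cAMP rises, were converted to nM cAMP using a standard curve after 30 min peptide exposure at 37° C.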

hGIPR = molecular target: T1, hGIPR (Homo sapiens, UniProt P48546); experiment: Functional cAMP formation (HTRF) in HEK-293 clonal cells expressing hGIPR, 0.1% bovine casein, without or with 1.0% human serum albumin; settings: for EC50: geometric mean; for Emax: read-out: hGIPR Emax, % ± SEM
T1 construct: expressed in transfected cells
T1 sequence (P48546 22-466): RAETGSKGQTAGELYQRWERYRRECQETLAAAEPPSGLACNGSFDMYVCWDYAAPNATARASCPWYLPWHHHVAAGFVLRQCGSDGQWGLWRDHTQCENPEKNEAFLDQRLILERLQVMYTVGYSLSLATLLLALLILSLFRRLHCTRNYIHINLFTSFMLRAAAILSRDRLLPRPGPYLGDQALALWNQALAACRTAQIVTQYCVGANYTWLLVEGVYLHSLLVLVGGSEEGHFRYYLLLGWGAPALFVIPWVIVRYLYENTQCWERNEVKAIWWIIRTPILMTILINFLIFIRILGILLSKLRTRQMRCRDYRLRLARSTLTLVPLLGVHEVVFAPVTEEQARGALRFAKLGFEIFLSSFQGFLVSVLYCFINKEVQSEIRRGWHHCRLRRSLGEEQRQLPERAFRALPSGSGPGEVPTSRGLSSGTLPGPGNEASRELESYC
Outline: as §1

hGCGR = molecular target: T2, hGCGR (Homo sapiens, UniProt P47871); experiment: Functional cAMP formation (HTRF) in HEK-293 clonal cells expressing hGCGR, 0.1% bovine casein, without or with 1.0% human serum albumin
T2 construct: expressed in transfected cells
T2 sequence (P47871 26-477): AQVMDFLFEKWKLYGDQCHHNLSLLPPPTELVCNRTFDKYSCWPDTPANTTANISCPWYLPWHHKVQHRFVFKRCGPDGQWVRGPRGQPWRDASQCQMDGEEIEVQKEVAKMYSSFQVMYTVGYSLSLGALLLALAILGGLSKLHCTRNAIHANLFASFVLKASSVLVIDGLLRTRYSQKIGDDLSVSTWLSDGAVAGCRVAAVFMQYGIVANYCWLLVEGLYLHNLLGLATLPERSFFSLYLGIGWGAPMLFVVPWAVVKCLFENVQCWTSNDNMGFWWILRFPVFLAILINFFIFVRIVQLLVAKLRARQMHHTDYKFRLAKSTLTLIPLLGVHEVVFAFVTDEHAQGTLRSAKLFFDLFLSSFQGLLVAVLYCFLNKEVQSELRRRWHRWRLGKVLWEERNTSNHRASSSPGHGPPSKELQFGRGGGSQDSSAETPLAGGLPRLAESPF
Outline: as §1

[1] = 0.1% bovine casein and 1.0% human serum albumin, 37° C., read-out: hGLP-1R EC50, nM (SEM, n)
[2] = HEK293, 0.1% bovine casein and 1.0% human serum albumin, 37° C., percent of maximal response to GLP-1(7-36)NH2, read-out: hGLP-1R Emax, % ± SEM
[3] = cAMP, incubated at 37° C., 0.1% bovine casein (no human serum albumin), read-out: hGLP-1R EC50, nM (SEM, n)
[4] = 0.1% bovine casein and 1.0% human serum albumin, 37° C., read-out: hGIPR EC50, nM (SEM, n)
[5] = HEK293, 0.1% bovine casein and 1.0% human serum albumin, 37° C., percent of maximal response to GIP(1-42)NH2
[6] = cAMP, incubated at 37° C., 0.1% bovine casein (no human serum albumin), read-out: hGIPR EC50, nM (SEM, n)
[7] = 0.1% bovine casein and 1.0% human serum albumin, 37° C., geometric mean, read-out: hGCGR EC50, nM (SEM, n)
[8] = cAMP, incubated at 37° C., 0.1% bovine casein (no human serum albumin), geometric mean, read-out: hGCGR EC50, nM (SEM, n)

SMILES	EC50 (hGLP-1R; [1])	Emax (hGLP-1R; [2])	EC50 (hGLP-1R; [3])	EC50 (hGIPR; [4])	Emax (hGIPR; [5])	EC50 (hGIPR; [6])	EC50 (hGCGR; [7])	EC50 (hGCGR; [8])	other results
CC[C@H](C)[C@H](NC(=O)[C@H](CC(C)C)NC(=O)[C@](C)(Cc1ccc(O)cc1)NC(=O)[C@@H](CCC(=O)O)NC(=O)[C@@H](NC(=O)[C@H](Cc1ccccc1)NC(=O)[C@H](CCC(=O)O)NC(=O)C(C)(C)NC(=O)[C@H](CCC(N)=O)NC(=O)[C@H](C)NC(=O)[C@H](CCCCNC(=O)COCCOCCNC(=O)COCCOCCNC(=O)CC[C@H](NC(=O)CCCCCCCCCCCCC(=O)O)C(=O)O)NC(=O)[C@H](CCCN)NC(=O)[C@H](CC(=O)O)NC(=O)[C@H](CC(C)C)NC(=O)[C@](C)(CC(C)C)NC(=O)[C@@H](NC(=O)[C@H](CO)NC(=O)[C@H](Cc1ccncc1)NC(=O)[C@H](CC(=O)O)NC(=O)[C@H](CO)NC(=O)[C@@H](NC(=O)[C@](C)(Cc1ccccc1F)NC(=O)[C@@H](NC(=O)CNC(=O)[C@H](CCC(=O)O)NC(=O)C(C)(C)NC(=O)[C@@H](N)Cc1ccc(O)cc1)[C@@H](C)O)[C@@H](C)O)[C@@H](C)CC)[C@@H](C)CC)C(=O)N[C@@H](CCCN)C(=O)NCC(=O)NCC(=O)N[C@@H](CCCCNC(=O)COCCOCCNC(=O)COCCOCCNC(=O)CC[C@H](NC(=O)CCCCCCCCCCCCC(=O)O)C(=O)O)C(=O)N[C@@H](CO)C(=O)N[C@@H](CO)C(=O)NCC(=O)N[C@@H](C)C(=O)N1CCC[C@H]1C(=O)N1CCC[C@H]1C(=O)N1CCC[C@H]1C(=O)N[C@@H](CO)C(N)=O [Example 151]	17.3 nM	112 ± 8.42%	0.546 nM	0.306 nM	87.5 ± 3.78%	0.0197 nM	> 9950 nM	> 9950 nM	
CC[C@H](C)[C@H](NC(=O)[C@H](CC(C)C)NC(=O)[C@](C)(Cc1ccc(O)cc1)NC(=O)[C@@H](CCC(=O)O)NC(=O)[C@@H](NC(=O)[C@H](Cc1ccccc1)NC(=O)[C@H](CCCCNC(=O)COCCOCCNC(=O)CC[C@H](NC(=O)CCCCCCCCCCCCC(=O)O)C(=O)O)NC(=O)C(C)(C)NC(=O)[C@H](CCC(N)=O)NC(=O)[C@H](C)NC(=O)[C@H](CCCCNC(=O)COCCOCCNC(=O)CC[C@H](NC(=O)CCCCCCCCCCCCC(=O)O)C(=O)O)NC(=O)[C@H](CCCN)NC(=O)[C@H](CC(=O)O)NC(=O)[C@H](CC(C)C)NC(=O)[C@](C)(CC(C)C)NC(=O)[C@@H](NC(=O)C(C)(C)NC(=O)[C@H](Cc1ccc(O)cc1)NC(=O)[C@H](CC(=O)O)NC(=O)[C@H](CO)NC(=O)[C@@H](NC(=O)[C@](C)(Cc1ccccc1F)NC(=O)[C@@H](NC(=O)CNC(=O)[C@H](CCC(=O)O)NC(=O)C(C)(C)NC(=O)[C@@H](N)Cc1ccc(O)cc1)[C@@H](C)O)[C@@H](C)O)[C@@H](C)CC)[C@@H](C)CC)C(=O)N[C@@H](CCC(=O)O)C(=O)NCC(=O)NCC(=O)N1CCC[C@H]1C(=O)N[C@@H](CO)C(=O)N[C@@H](CO)C(=O)NCC(=O)N[C@@H](C)C(=O)N1CCC[C@H]1C(=O)N1CCC[C@H]1C(=O)N1CCC[C@H]1C(=O)N[C@@H](CO)C(N)=O [Example 366]									Emax (hGLP-1R; HEK293, cAMP, 37° C., 0.1% bovine casein and 1.0% human serum albumin, percent of maximal response to GLP-1(7-36)NH2, read-out: hGLP-1R Emax, % ± SEM): 98.3%; Emax (hGLP-1R; HEK293, cAMP, 37° C., 0.1% bovine casein, percent of maximal response to GLP-1(7-36)NH2, arithmetic mean, read-out: hGLP-1R Emax, % ± SEM): 89.6%; EC50 (hGLP-1R; cAMP, 37° C., 0.1% bovine casein (no human serum albumin), read-out: hGLP-1R EC50, nM (SEM, n)): 0.279 nM; Emax (hGIPR; HEK293, cAMP, 37° C., 0.1% bovine casein and 1.0% human serum albumin, percent of maximal response to GIP(1-42)NH2): 95.9%; EC50 (hGIPR; cAMP, 37° C., 0.1% bovine casein (no human serum albumin), read-out: hGIPR EC50, nM (SEM, n)): 0.0162 nM; EC50 (hGCGR; cAMP, 37° C., 0.1% bovine casein (no human serum albumin), geometric mean, read-out: hGCGR EC50, nM (SEM, n)): > 9950 nM; EC50 (hGCGR; cAMP, 37° C., 0.1% bovine casein and 1.0% human serum albumin, geometric mean (SEM, n), read-out: hGCGR EC50, nM (SEM, n)): > 9950 nM
CC[C@H](C)[C@H](NC(=O)[C@H](CC(C)C)NC(=O)[C@](C)(Cc1ccc(O)cc1)NC(=O)[C@@H](CCC(=O)O)NC(=O)[C@@H](NC(=O)[C@H](Cc1ccccc1)NC(=O)[C@H](CCC(=O)O)NC(=O)C(C)(C)NC(=O)[C@H](CCC(N)=O)NC(=O)[C@H](C)NC(=O)[C@H](CCCCNC(=O)COCCOCCNC(=O)COCCOCCNC(=O)CC[C@H](NC(=O)CCCCCCCCCCCCC(=O)O)C(=O)O)NC(=O)[C@H](CCCN)NC(=O)[C@H](CC(=O)O)NC(=O)[C@H](CC(C)C)NC(=O)[C@](C)(CC(C)C)NC(=O)[C@@H](NC(=O)[C@H](CO)NC(=O)[C@H](Cc1ccncc1)NC(=O)[C@H](CC(=O)O)NC(=O)[C@H](CO)NC(=O)[C@@H](NC(=O)[C@](C)(Cc1ccccc1F)NC(=O)[C@@H](NC(=O)CNC(=O)[C@H](CCC(=O)O)NC(=O)C(C)(C)NC(=O)[C@@H](N)Cc1ccc(O)cc1)[C@@H](C)O)[C@@H](C)O)[C@@H](C)CC)[C@@H](C)CC)C(=O)N[C@@H](CCC(=O)O)C(=O)NCC(=O)NCC(=O)N[C@@H](CCCCNC(=O)COCCOCCNC(=O)COCCOCCNC(=O)CC[C@H](NC(=O)CCCCCCCCCCCCC(=O)O)C(=O)O)C(=O)N[C@@H](CO)C(=O)N[C@@H](CO)C(=O)NCC(=O)N[C@@H](CCCN)C(=O)N1CCC[C@H]1C(=O)N1CCC[C@H]1C(=O)N1CCC[C@H]1C(=O)N[C@@H](CO)C(N)=O [Example 153] (H-Y[Aib]EGT[αMePhe(2-F)]TSD[4Pal]SI[αMeL]LD[Orn]K([AEEA-AEEA-γGlu-C14 diacid])AQ[Aib]EFI[dE][αMeY]LIEGGK([AEEA-AEEA-γGlu-C14 diacid])SSG[Orn]PPPS-NH2)	40.8 nM	98.2 ± 5.4%	1.1 nM	1.15 nM	94.1 ± 3.21%	0.0277 nM	> 9950 nM	> 9950 nM	Emax (hGLP-1R; HEK293, percent of maximal response to GLP-1(7-36)NH2, 37° C., 0.1% bovine casein, arithmetic mean, read-out: hGLP-1R Emax, % ± SEM): 91.8 ± 4.63%; Emax (hGIPR; HEK293, percent of maximal response to GIP(1-42)NH2, 37° C., 0.1% bovine casein, arithmetic mean): 97.8 ± 2.74%
CC[C@H](C)[C@H](NC(=O)[C@H](CC(C)C)NC(=O)[C@](C)(Cc1ccc(O)cc1)NC(=O)[C@H](CCCCNC(=O)COCCOCCNC(=O)COCCOCCNC(=O)CC[C@H](NC(=O)CCCCCCCCCOc1ccc(C(=O)O)cc1)C(=O)O)NC(=O)[C@@H](NC(=O)[C@H](Cc1ccccc1)NC(=O)[C@H](CCCN)NC(=O)C(C)(C)NC(=O)[C@H](CCC(N)=O)NC(=O)[C@H](C)NC(=O)[C@H](CCC(N)=O)NC(=O)[C@H](CCCN)NC(=O)[C@H](CC(=O)O)NC(=O)[C@H](CC(C)C)NC(=O)[C@](C)(CC(C)C)NC(=O)[C@@H](NC(=O)C(C)(C)NC(=O)[C@@H](NC(=O)[C@H](CC(=O)O)NC(=O)[C@H](CO)NC(=O)[C@@H](NC(=O)[C@](C)(Cc1ccccc1F)NC(=O)[C@@H](NC(=O)CNC(=O)[C@H](CCC(=O)O)NC(=O)C(C)(C)NC(=O)[C@@H](N)Cc1ccc(O)cc1)[C@@H](C)O)[C@@H](C)O)C(C)C)[C@@H](C)CC)[C@@H](C)CC)C(=O)N[C@@H](CCCCNC(=O)COCCOCCNC(=O)COCCOCCNC(=O)CC[C@H](NC(=O)CCCCCCCCCOc1ccc(C(=O)O)cc1)C(=O)O)C(=O)NCC(=O)NCC(=O)N1CCC[C@H]1C(=O)N[C@@H](CO)C(=O)N[C@@H](CO)C(=O)NCC(=O)N[C@@H](C)C(=O)N1CCC[C@H]1C(=O)N1CCC[C@H]1C(=O)N1CCC[C@H]1C(=O)N[C@@H](CO)C(N)=O [Example 447]									Emax (hGLP-1R; HEK293, read-out: hGLP-1R Emax, % ± SEM, cAMP, 37° C., 0.1% bovine casein, percent of maximal response to GLP-1(7-36)NH2, arithmetic mean): 105%; EC50 (hGLP-1R; hGLP-1R EC50, nM (SEM, n), cAMP, 37° C., 0.1% bovine casein (no human serum albumin)): 0.219 nM; EC50 (hGIPR; hGIPR EC50, nM (SEM, n), cAMP, 37° C., 0.1% bovine casein (no human serum albumin)): 0.017 nM; EC50 (hGCGR; hGCGR EC50, nM (SEM, n), cAMP, 37° C., 0.1% bovine casein (no human serum albumin), geometric mean): > 9950 nM; EC50 (hGCGR; hGCGR EC50, nM (SEM, n), cAMP, 37° C., 0.1% bovine casein and 1.0% human serum albumin, geometric mean (SEM, n)): > 9950 nM
